Publication PMC12455130, “Multifunctional molecular agent for tau-targeted combinational therapy of Alzheimer’s disease” (The Journal of Biological Chemistry, 2025)

What was measured:
R3 fibrils = biological target: T1, R3 fibrils (Homo sapiens, UniProt P10636); assay: TEM of heparin-induced R3 fibrils; assay type: biochemical
T1 construct: R3 (^306VQIVYK PVDLSK VTSKCG SLGNIH HKPGGG Q^336) and rabbit anti-tau antibody were purchased from MuJin; purchased MuJin
Experimental: To further confirm the inhibitory efficiency of 4GA and 2GA on R3 fibril formation, the morphology of heparin-induced R3 aggregates at different conditions was characterized by transmission electron microscopy (TEM) (Fig. 4C). After incubation, the mature fibrils of R3 were interweaved and serried in the absence of 4GA or 2GA (0 μM).
For detecting the inhibitory efficiency of inhibitors, 15 μM R3, 3.8 μM heparin, and 4GA/2GA/4ME/GA (0, 10, and 40 μM) in 50 mM Tris–HCl buffer (pH 7.4) was incubated at 37 °C for 3 h, respectively. For exploring the effect of Cu^2+ on R3 aggregation, 15 μM R3, 3.8 μM heparin was mixed in the presence or the absence of 3.8 μM Cu^2+ in 50 mM Hepes buffer (pH 7.4). Then, 10 μM 4GA/2GA/4ME/GA was added to the solution. After 3 h incubation, 10 μl of each solution was applied on a carbon support membrane, followed by 10 μl of 2% uranyl acetate, and dried at room temperature. The operation was carried out on transmission electron microscope (JEM-2100, provieded by JEOL).

tau peptide R3 = biological target: T2, tau peptide R3 (Homo sapiens, UniProt P10636); assay: ThS assay, Cu2+-promoted heparin-induced R3 aggregation; assay type: biochemical; conditions: R3 15 μM, Cu2+ 3.8 μM, compound 10 μM, heparin 3.8 μM, 3 h
T2 construct: R3 (^306VQIVYK PVDLSK VTSKCG SLGNIH HKPGGG Q^336) and rabbit anti-tau antibody were purchased from MuJin; purchased MuJin
T2 sequence (P10636 623-653 limits assumed): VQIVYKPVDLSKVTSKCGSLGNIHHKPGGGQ
From the text: Metal ions, especially Cu^2+, are believed to be highly compatible with cysteine residues of tau peptide as a coordination center ([26]). Accompanied by the formation of intermolecular S–Cu–S bridging coordination bond, or intermolecular disulfide bond, these metal ions have been proven to promote tau aggregation ([27]). After confirming that 4GA and 2GA can effectively remove copper ions through coordination, we further explore their effects on R3 aggregation under the promotion of Cu^2+. […] Heparin was used to initiate the aggregation ([15]). […] As a comparison, the effects of the precursor compounds: 4ME, 3ME, 2ME, and 1ME, on Cu^2+-promoted R3 aggregation were also examined (Fig. S15).
Figure 5 Kinetic curves and TEM image of R3 aggregation with 4GA or 2GA.A, kinetic curves of the R3 (15 μM) aggregation monitored by ThS fluorescence assay in different conditions. B, ThS fluorescence intensity of R3 (15 μM) incubated for 3 h in different conditions. C, TEM image of R3 fibrils in different conditions. Negatively stained with uranyl acetate. Scale bar represents 200 nm. Final concentrations of R3, Cu^2+, and inhibitors are 15, 3.8, and 10 μM, respectively. All aggregations were initiated by heparin (3.8 μM). 2GA, (4,10-dimethyl-1,4,7,10-tetraazacyclododecane-1,7-diyl)bis((3,4,5-trihydroxyphenyl)methanone); 4GA, (1,4,7,10-tetraazacyclododecane-1,4,7,10-tetrayl)tetrakis((3,4,5-trihydroxyphenyl)methanone); TEM, transmission electron microscopy; ThS, thioflavin S.
The promotion of Cu^2+ on R3 aggregation was also inspected, similar to the aforementioned operation, unless that 3.8 μM Cu^2+ was also included, and using 50 mM Hepes (pH 7.4) as the buffer solution.
Fig. S15 ThS fluorescence intensity of R3 (15 µM) incubated for 3 h. Final concentrations of R3, Cu^2+, and compounds are 15, 3.8 and 10 µM, respectively. All aggregations were initiated by heparin (3.8 µM).

SK-N-SH cells [1] = assay: Cell viability assay (CCK-8); assay type: cell-based; conditions: for SK-N-SH cells dead: 80 μM, 24 h incubation; for cytotoxicity (cell viability): SK-N-SH, concentration up to 40 μM
Experimental: However, we still face challenges to improve their therapeutic effects while reducing neurotoxicity. Therefore, a systematic investigation on the cytotoxicity of our new synthetic compounds was carried out. Herein, human neuroblastoma cells (SK-N-SH) were utilized for standard cell viability assay (Cell Counting Kit-8 [CCK-8] assay).
The human neuroblastoma cell (SK-N-SH) was obtained from the Chinese Academy of Sciences stem cell bank. Cells were maintained in Dulbecco’s modified Eagle’s medium (DMEM) supplemented with 10% fetal bovine serum (FBS), 100 U/ml penicillin G, and 100 μg/ml streptomycin at 37 °C in a humidified atmosphere containing 5% CO2.
Cells were plated in 96-well plate at a density of 1 × 10^4 in 100 μl medium per well for 24 h. Then, the FBS-free medium containing the tested compounds at different concentrations was used to replace the old medium. After 24 h incubation, 100 μl of FBS-free DMEM containing 10% CCK-8 was added into each well to replace the old medium. After 2 h incubation, the absorbance at 450 nm was measured by SpectraMax iD3 (Molecular Devices).

SK-N-SH cells [2] = assay: Cell rescue assay (CCK-8) against R3 aggregates / Cu2+; assay type: cell-based, human; conditions: R3, heparin, Cu2+ preincubated with compound (20 μM), diluted 1:1, 24 h
Experimental: In this regard, we next evaluated the detoxification effect of 4GA and 2GA in the SK-N-SH cells treated with different components with possible cytotoxicity, including R3, R3 aggregates (R3 + heparin), Cu^2+, 4GA, 2GA, GA, and 4ME in indicated conditions, as shown in Figure 6B.
For cell rescue assay, 30 μM R3, 7.5 μM heparin was incubated in FBS–DMEM containing 7.5 μM Cu^2+ and different compounds (20 μM) at 37 °C for 1 h. Then, 500 μl of preincubated R3 solution was diluted with 500 μl fresh FBS–DMEM, and the mixture was used to replace the old medium after the cell attached to the 96-well plate. After cultured for 24 h, CCK-8 was used to measure the cell viability.

SK-N-SH cells [3] = assay: Intracellular ROS measurement (DCFH, flow cytometry and CLSM); assay type: cell-based, human; conditions: 15 μM R3, 3.8 μM Cu2+, 10 μM compound; for ROS in SK-N-SH cells generated by R3–Cu2+ complex (flow cytometry): 24 h
Experimental: The flow cytometry and confocal laser scanning microscopy (CLSM) were used to show the intracellular ROS production. […] Consequently, the reductive phenolic hydroxyl groups might be a key factor for scavenging ROS triggered by R3–Cu^2+ complex.
SK-N-SH cells were seeded on a 12-well plate at a density of 1 × 10^5/well and incubated at 37 °C for 24 h, followed by treating with 15 μM R3 in the presence or the absence of 3.8 μM Cu^2+ in FBS-free DMEM. Two hours later, 10 μM 4GA/2GA/4ME/GA was added to the medium, respectively. After 24 h, the culture medium was removed, and 10 μM DCFH diacetate in FBS-free DMEM was added and incubated for 45 min at 37 °C. Samples were washed three times with PBS, and 4% polyformaldehyde was added and fixed at room temperature for 20 min. Cells were observed under a CLSM. For quantitative analysis, cells were harvested and washed three times with ice-cold PBS and resuspended in PBS. The fluorescence intensity of DCFH was analyzed by flow cytometry (CytoFLEX LX).

T1 sequence (P10636 623-653 limits assumed): as above

O=C(c1cc(O)c(O)c(O)c1)N1CCN(C(=O)c2cc(O)c(O)c(O)c2)CCN(C(=O)c2cc(O)c(O)c(O)c2)CCN(C(=O)c2cc(O)c(O)c(O)c2)CC1 [4GA, (1,4,7,10-tetraazacyclododecane-1,4,7,10-tetrayl)tetrakis((3,4,5-trihydroxyphenyl)methanone)]
R3 fibril morphology (TEM) (R3 fibrils; 10 μM inhibitor): smaller numbers of short R3 filaments
ThS fluorescence intensity of R3 aggregation in the presence of Cu2+ (tau peptide R3): dropped dramatically, to a level lower than the case of R3 aggregation in the absence of Cu^2+
SK-N-SH cells dead (SK-N-SH cells [1]): 40.5%
cytotoxicity (cell viability) (SK-N-SH cells [1]; 24 h): insignificant cytotoxicity
rescue of cell viability against R3 aggregates or Cu2+ (SK-N-SH cells [2]): dramatically elevates the cell viability
CLSM green fluorescence (intracellular ROS) (SK-N-SH cells [3]): almost disappeared
ROS in SK-N-SH cells generated by R3–Cu2+ complex (flow cytometry) (SK-N-SH cells [3]): appreciably decreased, almost to the control level

CN1CCN(C)CCN(C)CCN(C)CC1 [4ME, 1,4,7,10-tetramethyl-1,4,7,10-tetraazacyclododecane, reference compound]
ThS fluorescence intensity of R3 aggregation in the presence of Cu2+ (tau peptide R3): only to a level close to the case of R3 aggregation in the absence of Cu^2+
cytotoxicity (survival rate of SK-N-SH cells) (SK-N-SH cells [1]; dose-dependent test, 24 h): negligible
rescue of cell viability against R3 aggregates or Cu2+ (SK-N-SH cells [2]): only a limited rescue ability
ROS in SK-N-SH cells generated by R3–Cu2+ complex (flow cytometry) (SK-N-SH cells [3]): did not decrease

CN1CCN(C(=O)c2cc(O)c(O)c(O)c2)CCN(C)CCN(C(=O)c2cc(O)c(O)c(O)c2)CC1 [2GA, (4,10-dimethyl-1,4,7,10-tetraazacyclododecane-1,7-diyl)bis((3,4,5-trihydroxyphenyl)methanone)]
R3 fibril morphology (TEM) (R3 fibrils; 10 μM inhibitor): smaller numbers of short R3 filaments
ThS fluorescence intensity of R3 aggregation in the presence of Cu2+ (tau peptide R3): dropped dramatically, to a level lower than the case of R3 aggregation in the absence of Cu^2+
SK-N-SH cells dead (SK-N-SH cells [1]): 34.2%
cytotoxicity (cell viability) (SK-N-SH cells [1]; 24 h): insignificant cytotoxicity
rescue of cell viability against R3 aggregates or Cu2+ (SK-N-SH cells [2]): dramatically elevates the cell viability
CLSM green fluorescence (intracellular ROS) (SK-N-SH cells [3]): almost disappeared
ROS in SK-N-SH cells generated by R3–Cu2+ complex (flow cytometry) (SK-N-SH cells [3]): appreciably decreased, almost to the control level

O=C(O)c1cc(O)c(O)c(O)c1 [GA, gallic acid, reference compound]
R3 fibril morphology (TEM) (R3 fibrils; even at high concentrations): could hardly change the number and length of R3 fibrils
rescue of cell viability against R3 aggregates or Cu2+ (SK-N-SH cells [2]): only a limited rescue ability
CLSM green fluorescence (intracellular ROS) (SK-N-SH cells [3]): almost disappeared
ROS in SK-N-SH cells generated by R3–Cu2+ complex (flow cytometry) (SK-N-SH cells [3]): appreciably decreased, almost to the control level
